Publication PMC8284440, “Toward New Transmission-Blocking Combination Therapies: Pharmacokinetics of 10-Amino-Artemisinins and 11-Aza-Artemisinin and Comparison with Dihydroartemisinin and Artemether” (Antimicrobial Agents and Chemotherapy, 2021)
Converted amounts (≈) assume the structure as drawn. “And” between values parts separate entries of the source, which are not always exact repeats. Identical values can stand only once. Like-named read-outs stand apart in the source and are kept apart here.

Columns and labels:
P. falciparum K1 [1] = system: P. falciparum K1; parameters: method as in ref 4 (supplement; main text 62); settings: Table S2, ± SEM; ref 4 (supplement; main text 62); read-out: Antimalarial activities IC50 K1; cited from earlier work
P. falciparum W2 [2] = system: P. falciparum W2; parameters: method as in ref 4 (supplement; main text 62); settings: Table S2, ± SEM; ref 4 (supplement; main text 62); read-out: Antimalarial activities IC50 W2; cited from earlier work
[3] = Metabolic stability in pooled human liver microsomes; parameters: CLint scaled: dose or concentration left out as unconfirmed; settings: for half-life at 0.4 mM / CLint scaled: human
Method: (ii) Metabolic stability in liver microsomes. The metabolic stability assay was performed in duplicate using 96-deepwell plates. Each compound (0.4 mM) was incubated individually in mouse, rat, and pooled human liver microsomes (0.4 mg/ml) at 37°C in the presence and absence of the cofactor NADPH (1 mM). An aliquot was taken at 0, 5, 10, 30, and 60 min, and the reaction was quenched by adding 300 μl of ice-cold acetonitrile containing the internal standard carbamazepine (0.0236 μg/ml) ([88]). The test compounds in the supernatant were analyzed by means of LC-MS/MS as described in “Sample analysis” below. The normalized data for each sample were used to calculate the in vitro half-life, intrinsic clearance rate, and hepatic extraction ratio from the results of this assay using the following equations ([88]).Equation 1. Normalized area. (1) Normalized area=(Peak area of sample at time point/Peak area of internal standard) Equation 2. Percent parent remaining. (2) % Parent=Normalized peak area of sample at time point/Normalized peak area of sample at t=0×100 Equation 3. Calculated t1/2. (3) t1/2=−0.693/λ where λ is the slope of the ln (% parent remaining) versus time curve of the compound.Equation 4. CLint. (4) CLint=[0.693/t1/2(min)]×[Volume of incubation (μl)/Microsomal protein (μg)] Equation 5. Hepatic extraction ratio. (5) EH=fu×CLint/QH + fu×CLint
Sample extraction. […] The organic layer was then transferred and evaporated under a gentle stream of nitrogen at room temperature for 30 min. The dried samples were reconstituted in mobile phase, and a 5 μl sample was injected for LC-MS/MS analysis. The only exception was the arylurea 10, for which no liquid-liquid extraction was conducted; instead, the 200 μl acetonitrile solution was evaporated under a gentle stream of nitrogen at room temperature. The dried sample was reconstituted in the mobile phase, and a 5 μl sample was injected for LC-MS/MS analysis. The plasma samples for each compound from the in vivo studies were extracted by mixing 350 μl ethyl acetate with 15 μl of plasma sample and 35 μl of universal buffer containing internal standard at pH 8. The samples were vortexed for 1 min and centrifuged for 5 min, and the organic layer was then transferred and evaporated under a gentle stream of nitrogen at room temperature for 30 min. The dried samples were each reconstituted in the mobile phase, and a 5 μl sample was injected for LC-MS/MS analysis.
LC-MS/MS analysis. For all the artemisinins except the arylurea 10, gradient chromatography was performed on a Phenomenex (Torrance, CA, USA) Luna PFP(2) analytical column (100 Å, 5 μm, 2 by 50 mm) and an AB Sciex API 5500 mass spectrometer which was operated at unit resolution in the multiple reaction monitoring (MRM) mode. The HPLC method used was a gradient method with 5 mM ammonium acetate and 0.1% acetic acid in water as the aqueous phase and a mixture of acetonitrile and methanol (1:1 vol/vol) containing 5% of the aqueous phase as the organic phase ([89]). The arylurea 10 was analyzed using a Phenomenex Gemini NX-C18 (5 μm, 2.1 mm by 50 mm) column with an AB Sciex 3200 QTRAP mass spectrometer operated at unit resolution in the MRM mode. The HPLC method used was a gradient method with 5 mM ammonium acetate and 0.1% acetic acid in water as the aqueous phase and a mixture of acetonitrile and methanol (1:1 vol/vol). The transitions of the molecular ions were monitored, as listed in Table S8 in the supporting information. The calibration range was between 0.002 μg/ml and 6.250 μg/ml. Data acquisition and evaluation were performed using Analyst 1.6.2 software (Applied Biosystems, Foster City, CA, USA). The formation of the putative metabolite DHA from the amino-artemisinins and the metabolite M1 of artemisone were evaluated in these mice PK studies; the MRM transitions of DHA and M1 (Table S8) were thus included in the LC-MS/MS assays.

P. falciparum NF54 [4] = system: P. falciparum NF54; parameters: method as in ref 4 (supplement; main text 62); settings: Table S2, ± SEM; ref 4 (supplement; main text 62); read-out: Antimalarial activities IC50 NF54; cited from earlier work
[5] = cited from earlier work
P. falciparum NF54 [6] = system: P. falciparum NF54; parameters: method as in ref 1 and 2 (supplement; main text 47, 48); settings: Table S1, ± SEM; ref 1 and 2 (supplement; main text 47, 48); cited from earlier work
P. falciparum K1 [7] = system: P. falciparum K1; parameters: method as in ref 1 and 2 (supplement; main text 47, 48); settings: Table S1, ± SEM; ref 1 and 2 (supplement; main text 47, 48); cited from earlier work
[8] = system: Chinese hamster ovary (CHO) cells; settings: read-out: Cytotoxicity EC50 CHO; MTT, ±SD; ref 1 and 2 (supplement; main text 47, 48); cited from earlier work
P. falciparum W2 [9] = system: P. falciparum W2; parameters: method as in ref 1 and 2 (supplement; main text 47, 48); settings: Table S1, ± SEM; ref 1 and 2 (supplement; main text 47, 48); cited from earlier work
P. falciparum TM91-C235 = system: P. falciparum TM91-C235; parameters: method as in ref 5 (supplement; main text 63); settings: CQ and mefloquine resistant; ref 5 (supplement; main text 63); read-out: Antimalarial activities IC50 TM91-C235; cited from earlier work
P. falciparum TM-C2B = system: P. falciparum TM-C2B; parameters: method as in ref 5 (supplement; main text 63); settings: atovaquone and CQ resistant; ref 5 (supplement; main text 63); read-out: Antimalarial activities IC50 TM-C2B; cited from earlier work
P. falciparum 7G8 = system: P. falciparum 7G8; parameters: method as in ref 5 (supplement; main text 63); settings: CQ resistant; ref 5 (supplement; main text 63); read-out: Antimalarial activities IC50 7G8; cited from earlier work
P. falciparum TM93-C1088 = system: P. falciparum TM93-C1088; parameters: method as in ref 5 (supplement; main text 63); settings: atovaquone and CQ resistant; ref 5 (supplement; main text 63); read-out: Antimalarial activities IC50 TM93-C1088; cited from earlier work
P. falciparum W2 [10] = system: P. falciparum W2; parameters: method as in ref 5 (supplement; main text 63); settings: CQ resistant; ref 5 (supplement; main text 63); read-out: Antimalarial activities IC50 W2; cited from earlier work

In the case of `C[C@@H]1CC[C@H]2[C@@H](C)C(=O)N[C@@H]3O[C@@]4(C)CC[C@@H]1[C@]32OO4` [11-Aza-artemisinin 11, 11-aza-artemisinin], the IC50 (P. falciparum K1 [1]) is listed as 9.44 ± 2.93 nM, the IC50 (P. falciparum W2 [2]) is listed as 6.02 ± 1.81 nM and the “Stability in HLM” value ([3]; human liver microsomes) is listed as “stable throughout the experiment”. For the same molecule, the half-life at 0.4 mM ([3]; pooled liver microsomes) was 60 min and the IC50 (P. falciparum NF54 [4]) was 10.5 ± 1.36 nM.
For `CO[C@H]1O[C@@H]2O[C@@]3(C)CC[C@H]4[C@H](C)CC[C@@H]([C@H]1C)[C@@]24OO3` [Artemether 3, artemether], the aqueous solubility ([5]; 25°C) is listed as 12.1 µg/mL (≈ 40.6 µM), the aqueous solubility [5] is listed as 300 µg/mL (≈ 1010 µM) and the aqueous solubility rating [5] is listed as “insoluble”. The aqueous solubility ([5]; variously recorded) was < 1000 µg/mL, the IC50 (P. falciparum K1 [1]) was 2.64 ± 0.18 nM and the IC50 (P. falciparum W2 [2]) was 6.7 ± 0.6 nM. The “Hepatic extraction ratio EH Human” value ([3]; human liver microsomes) was 0.9, the half-life at 0.4 mM ([3]; microsomes) was 12.5 min and the CLint scaled ([3]; pooled liver microsomes) was 172 mL/min/kg. The IC50 (P. falciparum NF54 [4]) was 1.86 ± 0.17 nM.
For `C[C@H]1[C@H](N2CCSCC2)O[C@@H]2O[C@@]3(C)CC[C@H]4[C@H](C)CC[C@@H]1[C@@]24OO3` [Artemiside 5, artemiside], the “aqueous solubility at pH 7.2” value [5] is given as < 2 mg/liter and < 5.4 μM, the IC50 (P. falciparum NF54 [6]) is given as 1.11 ± 0.17 nM and the IC50 (P. falciparum K1 [7]) is given as 1.6 ± 0.4 nM. For the same molecule, the EC50 [8] was > 271000 nM, the “Hepatic extraction ratio EH Human” value ([3]; human liver microsomes) was 1.0 and the CLint scaled ([3]; pooled liver microsomes) was 451 mL/min/kg. For the same molecule, the half-life at 0.4 mM ([3]; pooled liver microsomes) was < 10 min and the IC50 (P. falciparum W2 [9]) was 1.75 ± 0.27 nM.
In the case of `C[C@H]1[C@H](N2CCS(=O)(=O)CC2)O[C@@H]2O[C@@]3(C)CC[C@H]4[C@H](C)CC[C@@H]1[C@@]24OO3` [Artemisone 6, artemisone], the IC50 (P. falciparum TM91-C235) is listed as 1.1 ± 0.5 nM, the “aqueous solubility at pH 7.2” value [5] is listed as 89 mg/liter and 221.6 μM and the IC50 (P. falciparum NF54 [6]) is listed as 1.2 ± 0.4 nM. For the same molecule, the IC50 (P. falciparum TM-C2B) was 1.1 ± 0.4 nM, the IC50 (P. falciparum 7G8) was 0.8 ± 0.1 nM and the IC50 (P. falciparum TM93-C1088) was 0.7 ± 0.2 nM. For the same molecule, the IC50 (P. falciparum K1 [7]) was 1.01 ± 0.19 nM, the EC50 [8] was > 249000 nM and the “Hepatic extraction ratio EH Human” value ([3]; human liver microsomes) was 0.9. For the same molecule, the CLint scaled ([3]; pooled liver microsomes) was 243 mL/min/kg, the half-life at 0.4 mM ([3]; pooled liver microsomes) was < 10 min and the IC50 (P. falciparum W2 [10]) was 1.3 ± 0.5 nM. For the same molecule, the IC50 (P. falciparum W2 [9]) was 1.6 ± 0.4 nM.
In the case of `C[C@H]1[C@H](N2CCN(C(=O)Nc3ccc(F)cc3)CC2)O[C@@H]2O[C@@]3(C)CC[C@H]4[C@H](C)CC[C@@H]1[C@@]24OO3` [Arylurea 10], the IC50 (P. falciparum NF54 [6]) is listed as 1.3 ± 0.1 nM, the IC50 (P. falciparum K1 [7]) is listed as 0.85 ± 0.1 nM and the EC50 [8] is listed as 204000 nM. For the same molecule, the “Hepatic extraction ratio EH Human” value ([3]; human liver microsomes) was 0.6, the CLint scaled ([3]; pooled liver microsomes) was 531 mL/min/kg and the half-life at 0.4 mM ([3]; pooled liver microsomes) was < 10 min. For the same molecule, the IC50 (P. falciparum W2 [9]) was 1.16 ± 0.17 nM.
For `C[C@H]1[C@@H](O)O[C@@H]2O[C@@]3(C)CC[C@H]4[C@H](C)CC[C@@H]1[C@@]24OO3` [DHA 2, dihydroartemisinin], the IC50 (P. falciparum TM91-C235) is given as 2.3 ± 0.7 nM, the IC50 (P. falciparum K1 [1]) is given as 0.8 ± 0.5 nM and the IC50 (P. falciparum NF54 [6]) is given as 2.51 ± 0.19 nM. The IC50 (P. falciparum TM-C2B) was 2 ± 0.7 nM, the IC50 (P. falciparum 7G8) was 1.3 ± 0.2 nM and the IC50 (P. falciparum TM93-C1088) was 1.4 ± 0.4 nM. For the same molecule, the IC50 (P. falciparum W2 [2]) was 0.37 ± 0.11 nM, the IC50 (P. falciparum K1 [7]) was 1.51 ± 0.33 nM and the EC50 [8] was 25200 nM. The “Hepatic extraction ratio EH Human” value ([3]; human liver microsomes) was 0.7, the CLint scaled ([3]; pooled liver microsomes) was 41.5 mL/min/kg and the half-life at 0.4 mM ([3]; pooled liver microsomes) was 51.7 min. For the same molecule, the IC50 (P. falciparum W2 [10]) was 2.2 ± 0.8 nM, the IC50 (P. falciparum NF54 [4]) was 0.57 ± 0.01 nM and the IC50 (P. falciparum W2 [9]) was 1.74 ± 0.22 nM.
In the case of `C[C@H]1[C@H](N2C=CS(=O)(=O)CC2)O[C@@H]2O[C@@]3(C)CC[C@H]4[C@H](C)CC[C@@H]1[C@@]24OO3` [M1 12], the IC50 (P. falciparum TM91-C235) is listed as 5 ± 0.6 nM, the IC50 (P. falciparum TM-C2B) is listed as 8.6 ± 8.2 nM and the IC50 (P. falciparum 7G8) is listed as 2.6 ± 0.8 nM. For the same molecule, the IC50 (P. falciparum TM93-C1088) was 2.5 ± 0.4 nM, the half-life at 0.4 mM ([3]; pooled liver microsomes) was > 150 min and the IC50 (P. falciparum W2 [10]) was 6.6 ± 0.4 nM.
For `C[C@H]1[C@H](NS(N)(=O)=O)O[C@@H]2O[C@@]3(C)CC[C@H]4[C@H](C)CC[C@@H]1[C@@]24OO3` [Sulfamide 7], the “aqueous solubility at pH 7.2” value [5] is listed as 294 mg/liter and 811 μM, the IC50 (P. falciparum NF54 [6]) is listed as 3 ± 1 nM and the IC50 (P. falciparum K1 [7]) is listed as 1.78 ± 0.26 nM. For the same molecule, the EC50 [8] was 56000 ± 4600 nM, the “Hepatic extraction ratio EH Human” value ([3]; human liver microsomes) was 0.2 and the CLint scaled ([3]; pooled liver microsomes) was 5.6 mL/min/kg. The half-life at 0.4 mM ([3]; pooled liver microsomes) was > 150 min and the IC50 (P. falciparum W2 [9]) was 2.04 ± 0.11 nM.
